Laboratory results published in patent publication US9708370B2, “Azapeptides as CD36 binding compounds” (VALORISATION-RECHERCHE, LIMITED PARTNERSHIP, priority 2007, dated 2017).
Like-named read-outs stand apart in the source and are kept apart here. Starred links: 1 amine or outer side, 2 acyl side, 3 side chain; linkers in the order of their positions; H or OH if unused. Non-standard residues stand in square brackets, D forms with d. Residues, ends and D or L forms follow the SMILES beside them. azaTyr = O=C(N(Cc1ccc(O)cc1)N[*:1])[*:2]; X3 = O=C(N(Cc1cccc2ccccc12)N[*:1])[*:2]; azaPhe = O=C(N(Cc1ccccc1)N[*:1])[*:2]; azaLeu = CC(C)CN(N[*:1])C(=O)[*:2]; azaGly = NNC(=O)O

How the values were obtained:
[1] = molecular target: CD36 (Rattus norvegicus (Rat), UniProt Q07969); assay: CD36 receptor covalent photolabelling binding assay, competition with [125I]Tyr-Bpa-Ala-hexarelin on rat cardiac membranes; settings: for binding activity/affinity at CD36 in words: compared with parent peptide GHRP-6 or hexarelin
Chain of CD36 (Q07969 whole entry): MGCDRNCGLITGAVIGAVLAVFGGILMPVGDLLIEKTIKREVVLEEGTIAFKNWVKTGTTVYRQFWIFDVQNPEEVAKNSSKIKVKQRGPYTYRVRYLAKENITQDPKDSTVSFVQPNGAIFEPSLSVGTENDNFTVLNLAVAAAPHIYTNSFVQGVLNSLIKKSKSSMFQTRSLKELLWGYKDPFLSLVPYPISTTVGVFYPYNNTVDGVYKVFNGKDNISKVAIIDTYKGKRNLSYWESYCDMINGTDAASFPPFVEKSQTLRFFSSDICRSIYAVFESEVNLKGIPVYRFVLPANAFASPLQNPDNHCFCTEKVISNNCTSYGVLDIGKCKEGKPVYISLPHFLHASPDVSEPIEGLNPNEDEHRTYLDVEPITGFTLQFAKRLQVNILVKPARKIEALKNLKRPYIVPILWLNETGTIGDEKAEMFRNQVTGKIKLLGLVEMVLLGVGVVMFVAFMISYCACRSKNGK
Experimental: The hearts from Sprague Dawley rats (300 g-325 g) from Charles River, used as a source of cardiac membranes, were prepared as follows: the heart was washed with ice-cold saline, and fatty and connective tissue was removed. The tissue was cut into small pieces with scissors and placed in a Sorvall centrifuge tube containing 5 ml/g of fresh tissue of Buffer A (10 mM NaHCO3, 5 mM NaN3, 10 μM Pefabloc, 0.1 μM Aprotinin, 1 μM Pepstatin A, 1 μM Leupeptin, pH 7.0). The suspension was homogenized with a Polytron at low speed, 3×15 sec. The homogenate was centrifuged at 8 700×g for 20 min and the supernatant was put on ice. The pellet was resuspended and homogenized with a Glass-teflon Potter by 5 strokes. The homogenate was centrifuged at 8 700×g for 10 min and this supernatant was combined with the first supernatant. The supernatant fluid was centrifuged at 35 000×g for 20 min, yielding a second pellet fraction that was suspended thoroughly in a glass homogenizer with a Teflon pestle in 20 ml/g of fresh tissue of Buffer B (20 mM Tris-maleate, 0.6M KCl, pH 6.8). The resulting suspension was centrifuged again at 35 000×g for 60 min. The third pellet fraction was resuspended thoroughly in a glass homogenizer with a Teflon pestle in 20 ml/g of fresh tissue of Buffer C (10 mM Tris/HCl buffer pH 7.4) followed with another centrifugation at 35 000×g for 60 min. The harvested precipitate was then suspended in a small volume (1-2 ml/g of fresh tissue) of 50 mM Tris/HCl buffer pH 7.4) containing 2 mM EGTA. The resulting membrane preparation was frozen at −80° C. Protein concentration was determined with bicinchoninic acid (BCA) method, using BSA as standard.
The iodination procedure was performed in the darkness. […] The reaction was started by adding 5 ul (3 nmol) of H2O2. The incubation was carried out at 22° C. for 5 min. The addition of H2O2 was repeated twice with 5 min incubation each time. The reaction was stopped with the addition of 1.4 ml of 0.1% TFA. The iodinated peptide was purified on a reverse-phase Vydac C18 column with a 60 min linear gradient (1 ml/min) from 20% to 50% acetonitrile (90%) in 0.1% TFA (10%).
Nonspecific binding was defined as binding not displaced by 50 μM corresponding peptide. All peptide containing solutions were diluted in Buffer B. Buffer A and B were degassed under vacuum, and used in capped tubes in order to minimize lipid peroxydation. Before the incubation period, all tubes were put under a low flow of nitrogen. All material was kept on ice and the binding assay was performed in darkness. After an incubation period of 60 min at 22° C. […] After centrifugation at 12 000×g for 15 minutes, the pellets were resuspended in 150 μl of sample buffer (62 mM Tris-HCl, pH 6.8, 2% SDS, 10% glycerol, 15% 2-mercapto-ethanol, and 0.05% bromophenol blue), and boiled for 5 min prior to being subjected to electrophoresis. Proteins (200 μg/100 μl) were separated on 7.5% SDS-PAGE (45 V overnight). The gels resulting from SDS/PAGE were fixed, colored in Coomassie Brilliant Blue R-250, dried, exposed to a storage phosphor intensifying screen (Amersham Biosciences), and analysed by using a Typhoon PhosphorImager (Amersham Biosciences) and ImageQuant 5.0 software to establish competition curves. Protein bands were quantified by densitometry. The covalent binding signal of 87 kDa was analyzed by densitometry using Typhoon Phospholmager™ (Typhoon, Amersham Biosciences) and ImageQuant 5.0® software to set competition curves.
Specific binding activities were defined as the ratio of the density of the protein band to that of a non-specific band. Results are expressed as the percentage of the density of the […] to that of the total binding band.

[2] = molecular target: human GHS-R1a (Homo sapiens (Human), UniProt Q92847); assay: GHS-R1a binding assay, competition with 125I-ghrelin on membranes of LLC-PK1 cells expressing human GHS-R1a; settings: for IC50: Table 5, read-out: IC50 Binding GHS-R1a; for binding affinity for GHS-R1a receptor in words: compared with GHRP-6
Chain of human GHS-R1a (Q92847 whole entry): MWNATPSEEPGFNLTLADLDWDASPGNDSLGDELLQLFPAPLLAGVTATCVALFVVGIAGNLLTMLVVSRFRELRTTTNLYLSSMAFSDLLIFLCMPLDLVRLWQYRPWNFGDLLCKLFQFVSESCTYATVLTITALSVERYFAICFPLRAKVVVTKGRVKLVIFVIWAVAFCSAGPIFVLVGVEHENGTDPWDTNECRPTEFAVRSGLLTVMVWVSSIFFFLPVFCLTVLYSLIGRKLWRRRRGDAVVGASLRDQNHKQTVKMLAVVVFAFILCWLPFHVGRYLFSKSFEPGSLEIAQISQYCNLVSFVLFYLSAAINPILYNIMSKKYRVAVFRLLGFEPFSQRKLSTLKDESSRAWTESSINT
Experimental: Rat ghrelin was radio iodinated with Na^125I using the lodo-Beads iodination reagent (Pierce #28665). Briefly, an lodo-bead was incubated with 2 mCi of Na^125I (Amersham) in 100 μL of 50 mM sodium phosphate buffer, pH 7.0 for 5 min at 22° C. The reaction was started by adding 20 nmol of the peptide (1 mM in 0.1 M acetic acid). The tube was incubated for 10 min at 22° C. The iodination was terminated by adding 1 mL of 0.1% TFA. The mono-iodinated peptide was purified by reverse-phase HPLC using a Vydac C18 ([…]) column (30 cm×0.39 cm) in combination with a binary elution system of (A) 0.1% TFA in H2O and (B) 0.1% TFA, 10% H2O, 90% acetonitrile. Fractions of 0.5 mL were collected and analyzed by its radioactive content.
Cells (1.4×10^6) were plated in 100 mm plates and transfected 24 h later with pCDNA3.1-hGHS-R1a (UMR cDNA Resource Center #GHSR0A0000) following the CaHPO4 precipitation method. Briefly, 40 μg of plasmid DNA was diluted in 500 μL of sterile H2O and added to an equal volume of a 4× CaCl2, pH 7.9 solution (2 mM Tris-HCl, 0.2 mM EDTA, 500 mM CaCl2). The mixture was then added slowly with air bubbles to 1 mL of 2× Hepes-buffered saline, pH 7.1 (50 mM Hepes, 280 mM NaCl, 1.5 mM Na2HPO4). After 30 min at room temperature, 1 mL was distributed evenly over the cells and let overnight. The medium was changed the next morning and the membrane preparation was made two days later.
Cells were washed twice with PBS and once with ice-cold homogenization buffer (50 mM Tris-HCl, pH 7.3, 5 mM MgCl2, 2.5 mM EDTA, 30 μg/ml bacitracin). Cells were scraped and harvested in 1.5 mL tubes. Cells were then lysed by temperature shock with two freeze/thaw cycles in liquid nitrogen. The tubes were centrifuged at 14000 g for 20 min. Pellets were resuspended in homogenization buffer and stored at −80° C. until used. Total protein concentrations were determined with the BCA protein assay kit (Pierce).
Competition experiments were performed by incubating 50 μg of LLC-PK1 membranes expressing human GHS-R1a with 15 fmol of ^125I-Ghrelin and increasing concentrations of unlabeled ghrelin or with increasing concentrations of azapeptides derivatives in 0.5 mL of binding buffer. Bound radiolabelled ligand was separated from free by filtration on Whatman GF/C filters pretreated with a 1% polyethylenimine solution. Filters were washed with 2×3 mL of washing buffer (50 mM Tris-HCl, pH 7.3, 10 mM MgCl2, 2.5 mM EDTA, 0.015% Triton X-100). Filters were counted in a LKB gamma counter. Curves were analyzed using Prism software (GraphPad Software Inc).

[3] = Table 6, read-out: IC50 Binding CD36
[4] = Table 3, rat cardiac membranes, [125I]Tyr-Bpa-Ala-hexarelin as radioligand, read-out: IC50, binding affinity of aza peptide derivatives towards CD36

SMILES | IC50 [1, 3] [µM] | IC50 [2] [µM] | binding activity/affinity at CD36 in words [1] | also measured
C[C@H](NC(=O)[C@@H](Cc1ccccc1)NC(=O)[C@H](Cc1c[nH]c2ccccc12)NC(=O)[C@H](C)NC(=O)N(Cc1ccccc1)NC(=O)[C@@H](N)Cc1cnc[nH]1)C(N)=O [CP-1A (i), His-azaPhe-Ala-Trp-D-Phe-Ala-NH2] (H-H[azaPhe]AW[dF]A-NH2) | > 10 | 51 |  | IC50 ([2]; listed as CP-1A(i)): > 10 µM
C[C@H](NC(=O)[C@H](C)NC(=O)N(Cc1ccccc1)NC(=O)[C@@H](N)Cc1cnc[nH]1)C(=O)N[C@H](Cc1ccccc1)C(=O)N[C@@H](CCCCN)C(N)=O [CP-1A (iii), (D/L)His-azaPhe-Ala-Ala-D-Phe-Lys-NH2] (H-H[azaPhe]AA[dF]K-NH2) | 27.6 | > 10 |  | 
C[C@H](N)C(=O)NN(Cc1ccccc1)C(=O)N[C@@H](C)C(=O)N[C@@H](Cc1c[nH]c2ccccc12)C(=O)N[C@H](Cc1ccccc1)C(=O)N[C@@H](CCCCN)C(N)=O [CP-1A (iv), Ala-azaPhe-Ala-Trp-D-Phe-Lys-NH2] (H-A[azaPhe]AW[dF]K-NH2) | 5.02 | > 10 | without major change | binding affinity for GHS-R1a receptor in words [2]: decreased drastically
C[C@H](NC(=O)[C@@H](Cc1ccccc1)NC(=O)[C@H](Cc1c[nH]c2ccccc12)NC(=O)[C@H](C)NC(=O)N(Cc1ccc(O)cc1)NC(=O)[C@@H](N)Cc1cnc[nH]1)C(N)=O [CP-1B (i), His-AzaTyr-Ala-Trp-D-Phe-Ala-NH2] (H-H[azaTyr]AW[dF]A-NH2) | 72.2 | > 10 |  | 
C[C@H](NC(=O)N(Cc1ccc(O)cc1)NC(=O)[C@@H](N)Cc1cnc[nH]1)C(=O)N[C@@H](Cc1c[nH]c2ccccc12)C(=O)N[C@H](C)C(=O)N[C@@H](CCCCN)C(N)=O [CP-1B (ii), His-azaTyr-Ala-Trp-D-Ala-Lys-NH2] (H-H[azaTyr]AW[dA]K-NH2) | > 10 | > 10 |  | 
C[C@H](N)C(=O)NN(Cc1ccc(O)cc1)C(=O)N[C@@H](C)C(=O)N[C@@H](Cc1c[nH]c2ccccc12)C(=O)N[C@H](Cc1ccccc1)C(=O)N[C@@H](CCCCN)C(N)=O [CP-1B (iv), Ala-AzaTyr-Ala-Trp-D-Phe-Lys-NH2] (H-A[azaTyr]AW[dF]K-NH2) | 17.4 | > 10 |  | 
C[C@H](N)C(=O)N[C@H](Cc1c[nH]c2ccccc12)C(=O)NNC(=O)N[C@@H](Cc1c[nH]c2ccccc12)C(=O)N[C@H](Cc1ccccc1)C(=O)N[C@@H](CCCCN)C(N)=O [CP-2A(v), Ala-D-Trp-azaGly-Trp-D-Phe-Lys-NH2] (H-A[dW][azaGly]W[dF]K-NH2) | 8.76 |  |  | 
CC(C)CN(NC(=O)[C@@H](Cc1c[nH]c2ccccc12)NC(=O)[C@@H](N)Cc1cnc[nH]1)C(=O)N[C@@H](Cc1c[nH]c2ccccc12)C(=O)N[C@H](Cc1ccccc1)C(=O)N[C@@H](C)C(N)=O [CP-2B (i), His-D-Trp-azaLeu-Trp-D-Phe-Ala-NH2] (H-H[dW][azaLeu]W[dF]A-NH2) | 9.02 | 8.17 | retained significant activity similar to the parent peptide | 
CC(C)CN(NC(=O)[C@@H](Cc1c[nH]c2ccccc12)NC(=O)[C@@H](N)Cc1cnc[nH]1)C(=O)N[C@@H](Cc1c[nH]c2ccccc12)C(=O)N[C@H](C)C(=O)N[C@@H](CCCCN)C(N)=O [CP-2B (ii), His-D-Trp-azaLeu-Trp-D-Ala-Lys-NH2] (H-H[dW][azaLeu]W[dA]K-NH2) | 4.94 | > 10 | retained significant activity similar to the parent peptide | binding activity/affinity at CD36 in words ([1]; listed as CP-2B(ii)): without major change; binding affinity for GHS-R1a receptor in words [2]: decreased drastically
CC(C)CN(NC(=O)[C@@H](Cc1c[nH]c2ccccc12)NC(=O)[C@@H](N)Cc1cnc[nH]1)C(=O)N[C@@H](C)C(=O)N[C@H](Cc1ccccc1)C(=O)N[C@@H](CCCCN)C(N)=O [CP-2B (iii), His-D-Trp-azaLeu-Ala-D-Phe-Lys-NH2] (H-H[dW][azaLeu]A[dF]K-NH2) | 9.66 | > 10 | retained significant activity similar to the parent peptide | 
CC(C)CN(NC(=O)[C@@H](Cc1c[nH]c2ccccc12)NC(=O)[C@H](C)N)C(=O)N[C@@H](Cc1c[nH]c2ccccc12)C(=O)N[C@H](Cc1ccccc1)C(=O)N[C@@H](CCCCN)C(N)=O [CP-2B (v), Ala-D-Trp-azaLeu-Trp-D-Phe-Lys-NH2] (H-A[dW][azaLeu]W[dF]K-NH2) | 3.68 |  | retained significant activity similar to the parent peptide | binding activity/affinity at CD36 in words ([1]; listed as CP-2B(v)): without major change; binding affinity for GHS-R1a receptor in words [2]: decreased drastically
NCCCC[C@H](NC(=O)[C@@H](Cc1ccccc1)NC(=O)[C@H](Cc1c[nH]c2ccccc12)NC(=O)NNC(=O)[C@@H](Cc1c[nH]c2ccccc12)NC(=O)[C@@H](N)Cc1cnc[nH]1)C(N)=O [DBG188p, His-D-Trp-azaGly-Trp-D-Phe-Lys-NH2] (H-H[dW][azaGly]W[dF]K-NH2) |  |  | retained significant activity similar to the parent peptide | IC50 [1, 4]: 9.61 µM
C[C@H](NC(=O)N(Cc1cccc2ccccc12)NC(=O)[C@@H](N)Cc1cnc[nH]1)C(=O)N[C@@H](Cc1c[nH]c2ccccc12)C(=O)N[C@H](Cc1ccccc1)C(=O)N[C@@H](CCCCN)C(N)=O [DBG253-10, His-azaNal-1-Ala-Trp-D-Phe-Lys-NH2] (H-H[X3]AW[dF]K-NH2) |  |  |  | IC50 [1, 4]: 1930 µM
